The values below come from patent publication US12240857B2 (priority 2017, dated 2025).

Like-named read-outs stand apart in the source and are kept apart here.

In data set [1] the test system is EBOV mucin-domain-deleted glycoprotein pseudotyped VSV. Description: microbe, parasite or virus in culture. Type of data set: cell-based, Zaire ebolavirus. To be noted: Zaire ebolavirus, Vero.
Data set [2] relates to BDBV mucin-domain-deleted glycoprotein pseudotyped VSV. Description: microbe, parasite or virus in culture. The format is cell-based, Bundibugyo ebolavirus. To be noted: Vesicular stomatitis virus, Vero.
For data set [3], the system named is parent VSV virus expressing the native VSV glycoprotein. Put plainly: microbe, parasite or virus in culture. Type of data set: cell-based. To be noted: Vesicular stomatitis virus, Vero, read-out: EC50 Pseudotype Assays VSV.
The subject of data set [4] is full-length Ebola Zaire GP pseudotyped VSV (EBOV_FL). Put plainly: microbe, parasite or virus in culture. The format is cell-based. To be noted: Zaire ebolavirus, read-out: EC50 Pseudotype Assays EBOV_FL.
The subject of data set [5] is full-length Marburgvirus (MARV) GP pseudotyped VSV. Description: microbe, parasite or virus in culture. Type of data set: cell-based, Marburg marburgvirus. To be noted: for EC50: Orthomarburgvirus, read-out: EC50 Pseudotype Assays MARV.
Data set [6] deals with full-length LASV glycoprotein pseudotyped VSV. Put plainly: microbe, parasite or virus in culture. Type of data set: cell-based, Lassa virus. Conditions: Vesicular stomatitis virus, read-out: EC50 Pseudotype Assays LASV.
The test system of data set [7] is wild-type Ebola Zaire.
Data set [8] can be described thus: in vitro. Conditions: African green monkey.
Data set [9] can be described thus: in vitro. To be noted: human, microsomes.
The nature of data set [10]: in vitro. Conditions: mouse, microsomes.
A short description of data set [11]: in vitro. To be noted: monkey, microsomes.
Data set [12] has as its system wild-type Ebola Zaire. Put plainly: microbe, parasite or virus in culture. To be noted: Zaire ebolavirus, HeLa, read-out: Ebola Zaire EC50.
Data set [13] concerns full-length SUDV GP pseudotyped VSV. Description: microbe, parasite or virus in culture. Conditions: Vesicular stomatitis virus, read-out: EC50 Pseudotype Assays SUDV. Type of data set: cell-based, Sudan ebolavirus.
Data set [14] relates to wild-type Sudan Gulu.
Data set [15] relates to wild-type Sudan Gulu. Put plainly: microbe, parasite or virus in culture. Conditions: Sudan ebolavirus, HeLa, read-out: Sudan Gulu EC50.
Data set [16] relates to EBOV (Mayinga). Put plainly: microbe, parasite or virus in culture. Type of data set: cell-based, Zaire ebolavirus.
Data set [17] deals with EBOV (Mayinga). Description: microbe, parasite or virus in culture. The format is cell-based, Zaire ebolavirus. To be noted: for EC90: Zaire ebolavirus.
In data set [18] the test system is native EBOV virus. To be noted: read-out: published EC50 against native EBOV virus; cited from earlier work.
For data set [19], the system named is Ebola virus infection. Conditions: human, in vivo; cited from earlier work.
The conditions of data set [20]: human, in vivo; cited from earlier work.
The mark [21] stands for this setting: read-out: EC50 Pseudotype Assays EBOV.
Setting [22] is: read-out: EC50 Pseudotype Assays BDBV.

In the case of `O=C(NC1CCNCC1)C12CC3CC(C1)CC(c1ccccc1)(C3)C2` [Example A63], the EC50 (in general, the concentration that produces a half-maximal response) was 80 nM in data set [1] (read-out: EC50 EBOV); 80 nM in [1] (setting [21]); 80 nM in [2] (read-out: EC50 BDBV); 80 nM in data set [2] (setting [22]); over 10000 nM in [3]; 40 nM in data set [4]. Also, the values for the EC50 in [5], in data set [6] and in data set [12] were 2800 nM, over 10000 nM and 390 nM, respectively. In addition, the “Ebola Zaire SI (CC50/EC50)” value in data set [7] was over 16. In addition, the CC50 in data set [8] (CC50) and in data set [8] (Cytotox CC50) was over 10000 nM in each case. Moreover, the half-life (usually the time in which the quantity being followed falls by half) is 4.3 h in [9], over 3.5 h in data set [10] and 3.95 h in data set [11].

For `CC12CC3CC(C(=O)NC4CCNCC4)(C1)CC(c1ccccc1)(C3)C2` (centres unmarked) [Example A68], the EC50 in data set [1] (read-out: EC50 EBOV) was 35 nM; in [1] (setting [21]), 40 nM; in data set [2] (read-out: EC50 BDBV) it was 160 nM; in data set [2] (setting [22]), 170 nM; in [3], over 10000 nM; in [4], 40 nM. Besides, the EC50 was 410 nM in [13]; 2800 nM in data set [5]; over 10000 nM in data set [6]; 180 nM in data set [12]; 130 nM in data set [15]. For the same compound, the “Ebola Zaire SI (CC50/EC50)” value in [7] turned out to be 134. Further, in data set [14], the “Sudan Gulu SI (CC50/EC50)” value is listed as 181. In addition, the CC50 in data set [8] (CC50) and in data set [8] (Cytotox CC50) was over 10000 nM in each case. Further, the half-life in [9] is 3.12 h; in data set [10], over 4 h; in data set [11] it was 2.37 h.

For `CCC12CC3CC(C(=O)NC4CCNCC4)(C1)CC(c1ccccc1)(C3)C2` (centres unmarked) [Example A80], the half-maximal effective concentration (EC50) was 10 nM in data set [1] (read-out: EC50 EBOV); 20 nM in data set [1] (setting [21]); 50 nM in data set [2] (read-out: EC50 BDBV); 60 nM in [2] (setting [22]); over 10000 nM in data set [3]; 40 nM in data set [4]. Moreover, the EC50 in [13] is 400 nM; in [5], 1100 nM; in data set [6], over 10000 nM; in data set [16] (Zaire ebolavirus, Vero) it was 890 nM; in data set [12], 130 nM; in data set [15], 140 nM. Further, the “SI50 (CC50/EC50)” value in [16] came out at 95.6. Further, the “SI90 (CC50/EC90)” value in [17] amounted to 9.6. For the same compound, the concentration for an effect of 90% (EC90) – broadly, the point of the concentration-response curve where the effect stands at 90% – in data set [17] turned out to be 8900 nM. Also, the “Ebola Zaire SI (CC50/EC50)” value in data set [7] was 137. For the same compound, the “Sudan Gulu SI (CC50/EC50)” value in data set [14] was 130. Further, the CC50 in [8] (CC50) is 10000 nM; in data set [8] (Cytotox CC50), over 10000 nM. Besides, the half-life in data set [9] was 1.72 h; in data set [10], over 2 h; in [11], 1.48 h.

As to `CCC12CC3CC(C(=O)N[C@H]4CC[C@H](N)CC4)(C1)CC(c1ccccc1)(C3)C2` (some centres unmarked) [Example A85], the EC50 in data set [1] (read-out: EC50 EBOV) was 13 nM; in data set [2] (read-out: EC50 BDBV) it was 96 nM; in data set [12], 100 nM; in data set [15], 180 nM. In [7], the “Ebola Zaire SI (CC50/EC50)” value came to 112. Also, in data set [14], the “Sudan Gulu SI (CC50/EC50)” value is listed as 64. In addition, in data set [8] (CC50), the CC50 was 12100 nM. Besides, the results for the half-life in data set [9], in [10] and in [11] were over 2 h, over 2 h and 1.4 h, respectively.

`OCCN1CCN(CC(O)COc2ccc(C34CC5CC(CC(C5)C3)C4)cc2)CC1` (centres unmarked) [Example D24, 1[4-(adamantan-1-yl)phenoxy]-3[4-(2-hydroxyethyl)piperazin-1-yl]propan-2-ol]: the 50% effective concentration (EC50) was 80 nM in [1] (24 h, read-out: EC50 EBOV); 90 nM in data set [1] (setting [21]); 270 nM in data set [2] (24 h, read-out: EC50 BDBV); 270 nM in data set [2] (setting [22]); over 10000 nM in [3]; 80 nM in data set [4]. Moreover, the concentration for a half-maximal effect (EC50) in [13] is 2430 nM; in data set [5], over 10000 nM; in data set [6], over 10000 nM; in [12] it was 440 nM; in [15], 260 nM. For the same compound, in [7], the “Ebola Zaire SI (CC50/EC50)” value worked out at 45.6. For the same compound, the “Sudan Gulu SI (CC50/EC50)” value in [14] came out at 78.7. The CC50 is 4300 nM in data set [8] (CC50) and over 10000 nM in data set [8] (Cytotox CC50).

Take `CN(C)CCCNc1nc(C23CC4CC(CC(C4)C2)C3)cs1` [Example D29, (3-{[4-(adamantan-1-yl)-1,3-thiazol-2-yl]amino}propyl) dimethylamine]: the EC50 is 170 nM in data set [1] (24 h, read-out: EC50 EBOV); 170 nM in [1] (setting [21]); 160 nM in data set [2] (24 h, read-out: EC50 BDBV); 160 nM in data set [2] (setting [22]); over 10000 nM in [3]; 180 nM in [4]. Also, the concentration for a half-maximal effect (EC50) is 1440 nM in data set [13]; 660 nM in data set [5]; over 10000 nM in [6]; 920 nM in [12]; 300 nM in data set [15]. The “MARV pseudotyped virus EC50 concentration (in words)” value in data set [5] is given as “sub-micromolar”. In [7], the “Ebola Zaire SI (CC50/EC50)” value worked out at 66.1. Besides, in [14], the “Sudan Gulu SI (CC50/EC50)” value is reported as 203. In addition, the CC50 in [8] (CC50) was 9400 nM; in data set [8] (Cytotox CC50) it was over 10000 nM.

Regarding `NC(=O)c1nc(F)c[nH]c1=O` [favipiravir], in [17], the “SI90 (CC50/EC90)” value was found to be 3 and the 90% effect level (EC90) was put at 333000 nM. Besides, the EC50 in data set [18] is 67000 nM. The “drop in viral load” value in [19] was 3-4 log. Besides, in data set [20], the half-life in humans is 1 to 4 h.
